Laboratory results: patent US11945799B2, “4-ethynylpyridine derivatives useful as GCN2 inhibitors” (IP2IPO INNOVATIONS LIMITED, priority 2020, dated 2024)
Where two headings read alike, the source gives them in different places.

Assays:
[1] = molecular target: T1, full-length human GCN2 enzyme (Homo sapiens, UniProt Q9P2K8); assay: GCN2 enzyme inhibition, LanthaScreen TR-FRET Kinase Activity assay (10 μM and 300 μM ATP); type: biochemical; conditions: mean of replicate assays
T1 construct: purchased Carna Bioscience
T1 sequence (Q9P2K8 whole entry): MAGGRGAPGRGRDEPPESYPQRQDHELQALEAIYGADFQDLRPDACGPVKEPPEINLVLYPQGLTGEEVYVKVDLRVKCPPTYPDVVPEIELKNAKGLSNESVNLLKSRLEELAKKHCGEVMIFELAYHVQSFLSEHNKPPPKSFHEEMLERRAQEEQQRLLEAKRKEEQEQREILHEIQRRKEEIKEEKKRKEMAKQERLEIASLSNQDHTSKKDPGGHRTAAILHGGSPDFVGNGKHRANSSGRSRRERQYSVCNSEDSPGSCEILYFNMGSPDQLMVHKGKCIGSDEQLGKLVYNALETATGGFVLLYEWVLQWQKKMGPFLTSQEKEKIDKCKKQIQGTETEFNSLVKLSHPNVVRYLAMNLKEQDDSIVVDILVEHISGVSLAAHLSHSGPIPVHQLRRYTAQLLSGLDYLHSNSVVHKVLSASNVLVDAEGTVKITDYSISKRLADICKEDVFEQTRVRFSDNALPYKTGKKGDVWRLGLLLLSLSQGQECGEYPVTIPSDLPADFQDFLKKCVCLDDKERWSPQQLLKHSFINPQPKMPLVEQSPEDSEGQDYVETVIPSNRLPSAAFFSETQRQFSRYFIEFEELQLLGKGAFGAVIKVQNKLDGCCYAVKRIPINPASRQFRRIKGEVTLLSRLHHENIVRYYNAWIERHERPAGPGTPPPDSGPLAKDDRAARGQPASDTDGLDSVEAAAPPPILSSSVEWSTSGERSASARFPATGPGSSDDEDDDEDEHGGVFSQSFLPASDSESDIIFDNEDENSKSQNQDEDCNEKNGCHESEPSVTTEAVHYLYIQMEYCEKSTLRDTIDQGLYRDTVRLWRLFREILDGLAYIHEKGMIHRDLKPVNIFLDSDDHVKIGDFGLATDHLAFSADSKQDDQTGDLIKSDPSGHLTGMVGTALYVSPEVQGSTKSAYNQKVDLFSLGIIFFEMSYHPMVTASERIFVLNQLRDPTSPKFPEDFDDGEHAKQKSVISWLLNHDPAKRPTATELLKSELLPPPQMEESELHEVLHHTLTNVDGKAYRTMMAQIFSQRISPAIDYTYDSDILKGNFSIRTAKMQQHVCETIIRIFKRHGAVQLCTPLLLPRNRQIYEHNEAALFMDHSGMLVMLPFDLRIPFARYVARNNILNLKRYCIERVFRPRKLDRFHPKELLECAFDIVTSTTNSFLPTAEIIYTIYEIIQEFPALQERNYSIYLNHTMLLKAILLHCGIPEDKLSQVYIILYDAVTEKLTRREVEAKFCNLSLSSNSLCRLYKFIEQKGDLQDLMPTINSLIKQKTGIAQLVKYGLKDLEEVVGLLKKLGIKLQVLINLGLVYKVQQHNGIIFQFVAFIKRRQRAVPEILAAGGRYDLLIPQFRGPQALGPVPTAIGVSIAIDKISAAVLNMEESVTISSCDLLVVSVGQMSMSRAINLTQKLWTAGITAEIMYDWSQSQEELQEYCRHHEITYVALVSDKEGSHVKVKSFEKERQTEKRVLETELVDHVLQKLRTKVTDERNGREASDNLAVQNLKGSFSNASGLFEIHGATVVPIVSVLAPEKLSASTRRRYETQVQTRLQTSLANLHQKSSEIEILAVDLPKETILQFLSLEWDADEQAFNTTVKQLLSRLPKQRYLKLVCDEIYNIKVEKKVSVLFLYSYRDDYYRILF
Method: Biological and Pharmacokinetic Testing (a) GCN2 Enzyme Inhibition (10 μM and 300 μM Assays) Assay Protocol Overview:
The inhibitory activity of the Example compounds towards GCN2 enzyme was measured according to the description below, using a LanthaScreen TR-FRET (Time Resolved Fluorescence Resonance Energy Transfer) Kinase Activity assay distributed by ThermoFisher Scientific.
The full-length human GCN2 enzyme (UniProt accession number Q9P2K8) was used for all experiments (Carna Bioscience). The TR-FRET pair was composed of GFP-eIF2α and LanthaScreen Terbium-labeled anti-peIF2α (pSer52) Antibody.
Each example compound was dissolved in DMSO (0.15 mM) and dispensed in a 384-well plate by a D300 dispenser (Tecan) to a final concentration range 3000-0.13 nM using the logarithmic dilution mode in 2 replicates. Full inhibition (3000 nM commercial reference inhibitor) and DMSO vehicle control wells were also included on the same plate. All volumes were normalized to the final DMSO concentration of 2% of the reaction volume. Next, 5 μL of H2O was added to each well of the plate.
The enzyme mixture was prepared to obtain the following concentrations: • GCN2—30 nM • unloaded tRNA—0.3 nM • HEPES (pH=7.0)—100 mM • MgCl2—20 mM; MnCl2—10 mM
The mixture was applied by adding 5 μL to each well of the plate. The enzyme and the tested compound were then incubated at room temperature for 20 min while shaking at 450 rpm.
The substrate mixture was prepared to obtain the following concentrations: • GFP-eIF2α—240 nM • ATP—900 μM or 30 μM • HEPES (pH=7.0)—50 mM • MgCl2—10 mM • MnCl2—5 mM.
The mixture was applied by adding 5 μL to each well of the plate. Thus, the final concentrations of the 15 μL reaction mixture were as follows: • GCN2—10 nM • unloaded tRNA—0.1 nM • GFP-eIF2α—80 nM • ATP—300 μM or 10 μM • HEPES (1 M, pH=7.0)—50 mM • MgCl2—10 mM • MnCl2—5 mM.
The reaction was allowed to proceed at room temperature for 30 min while shaking at 450 rpm.
The antibody mixture was prepared to obtain the following concentrations: • Na2EDTA·2H2O—40 mM, in TR-FRET Dilution Buffer (Life technologies) • Tb—anti-peIF2a antibodies—4 nM.
The mixture was applied by adding 15 μL to each well. The plate was then incubated at room temperature for 60 min while shaking at 450 rpm and then read using Tecan Spark reader using specific TR-FRET filters.
The analysis of the GFP/Tb fluorescence results was conducted with GraphPad Prism to determine IC50 for each of the example compounds using 4-parameter model: log(inhibitor) vs. response-variable slope. IC50 and K, values were calculated in the usual way. The assay was carried out between 1 and 15 times. The results in the table below are the mean results from replicate assays for the compound in question, where applicable.

[2] = Kinetic solubility in PBS buffer pH 7.4; type: physicochemical; conditions: aqueous buffer, kinetic from dmso stock; PBS buffer pH 7.4, 90 minutes at room temperature, from 10 mM DMSO stock
Method: The kinetic solubility assay investigates a solubility based on the amount of material which remains in solution after a precipitation process. […] Assay is performed using Multiscreen Vacuum Manifold. A buffer of interest (in standard protocol PBS buffer at pH=7.4 is used) is spiked with stock solution and incubated for 90 minutes at room temperature. After that time solution/suspension is filtrated. The concentration of each compound is determined on the base of prepared calibration curve using UV-VIS spectrophotometry method. The assay is made in triplicate.
Buffer of interest: 0.24 g of KH2PO4, 1.44 g of Na2HPO4, 0.2 g of KCl and 8 g NaCl and dissolve in 1 L distilled H2O; adjust pH to appropriate value (pH 7.4). 190 μl of buffer of interest was dispensed into the wells of a 96 well filter plate, followed by 10 μl of compound (10 mM stock solution in DMSO). The plate was shaken gently at room temperature for 90 minutes at 500 rpm using a BioSan, Plate Shaker-Thermostat, PST-60 HL-4. After 90 minutes, the plate was filtered using a vacuum manifold and vacuum pump. 100 μl of each filtrate and 100 μl acetonitrile was transferred to a 96 well UV-visible light transparent plate and the UV-visible absorption spectrum was measured using a Biotek Synergy 2 multiplate reader from 250-500 nm, interval range 10 nm. The amount of test compound was calculated using a calibration curve prepared by serial dilution of compounds in equivalent amounts of DMSO and acetonitrile.

[3] = read-out: GCN2 IC50 (nM) 10 uM ATP, 10 uM ATP
[4] = read-out: GCN2 IC50 (nM) 300 uM ATP, 300 uM ATP
[5] = read-out: GCN2 Ki (nM) 10 uM ATP, 10 uM ATP
[6] = read-out: GCN2 Ki (nM) 300 uM ATP, 300 uM ATP

Row | Compound | IC50 [1, 3] | IC50 [1, 4] | Ki [1, 5] | Ki [1, 6] | solubility kinetic at 90 min [2]
1 | COc1ncc(Cl)cc1S(=O)(=O)Nc1nccc(C#Cc2cnc(N)nc2)c1Cl [Example 2, N-{4-[2-(2-aminopyrimidin-5-yl)ethynyl]-3-chloropyridin-2-yl}-5-chloro-2-methoxypyridine-3-sulfonamide] | 8.1 nM | 79 nM | 2.6 nM | 1.2 nM | 0.226 mg/mL
2 | COc1ncc(Cl)cc1S(=O)(=O)Nc1nccc(C#Cc2cnc(N)c3ncccc23)c1F [Example 4, N-{4-[2-(8-amino-1,7-naphthyridin-5-yl)ethynyl]-3-fluoropyridin-2-yl}-5-chloro-2-methoxypyridine-3-sulfonamide] | 2.9 nM | 17.6 nM | 0.9 nM | 0.3 nM | 0.0295 mg/mL
3 | COc1ncc(Cl)cc1S(=O)(=O)Nc1nccc(C#Cc2cncc3nccnc23)c1F [Example 5, 5-chloro-N-{4-[2-(pyrido[3,4-b]pyrazin-8-yl)ethynyl]-3-fluoropyridin-2-yl}-2-methoxypyridine-3-sulfonamide] | 7.8 nM | 186 nM | 2.5 nM | 2.8 nM | 0.223 mg/mL
4 | COc1ncc(Cl)cc1S(=O)(=O)Nc1nccc(C#Cc2cncc3cccnc23)c1F [Example 6, 5-chloro-N-{4-[2-(1,6-naphthyridin-8-yl)ethynyl]-3-fluoropyridin-2-yl}-2-methoxypyridine-3-sulfonamide] | 6.7 nM | 49.3 nM | 2.1 nM | 0.8 nM | 0.0403 mg/mL
5 | COc1ncc(Cl)cc1S(=O)(=O)Nc1nccc(C#Cc2cnn3c(N)ccnc23)c1F [Example 7, N-{4-[2-(7-aminopyrazolo[1,5-a]pyrimidin-3-yl)ethynyl]-3-fluoropyridin-2-yl}-5-chloro-2-methoxypyridine-3-sulfonamide] | 7.9 nM | 105 nM | 2.5 nM | 1.6 nM | 0.216 mg/mL
6 | COc1ncc(Cl)cc1S(=O)(=O)Nc1nccc(C#Cc2cnc3c(N)cccn23)c1F [Example 8, N-{4-[2-(8-aminoimidazo[1,2-a]pyridin-3-yl)ethynyl]-3-fluoropyridin-2-yl}-5-chloro-2-methoxypyridine-3-sulfonamide] | 9.9 nM | 335 nM | 3.1 nM | 5.1 nM | 0.214 mg/mL
7 | COc1ncc(Cl)cc1S(=O)(=O)Nc1nccc(C#Cc2cnc3ccccc3n2)c1F [Example 9, 5-chloro N-{4-[2-(quinoxalin-2-yl)ethynyl]-3-fluoropyridin-2-yl}-2-methoxypyridine-3-sulfonamide] | 7.5 nM | 112 nM | 2.4 nM | 1.7 nM | 0.135 mg/mL
8 | COc1ncc(Cl)cc1S(=O)(=O)Nc1ncc(F)c(C#Cc2cnc(N)nc2)c1F [Example 10, N-{4-[2-(2-aminopyrimidin-5-yl)ethynyl]-3,5-difluoropyridin-2-yl}-5-chloro-2-methoxypyridine-3-sulfonamide] |  |  |  |  | 0.138 mg/mL
9 | COc1ncc(Cl)cc1S(=O)(=O)Nc1nccc(C#Cc2cnc3c(N)nccn23)c1F [Example 11, N-{4-[2-(8-aminoimidazo[1,2-a]pyrazin-3-yl)ethynyl]-3-fluoropyridin-2-yl}-5-chloro-2-methoxypyridine-3-sulfonamide] | 2.3 nM | 71.8 nM | 0.7 nM | 1.1 nM | 0.216 mg/mL
10 | COc1ccc(Cl)cc1S(=O)(=O)Nc1nccc(C#Cc2cnc3[nH]ncc3c2)c1F [Example 12, 5-chloro-N-[3-fluoro-4-(2-{1H-pyrazolo[3,4-b]pyridin-5-yl}ethynyl)pyridin-2-yl]-2-methoxybenzene-1-sulfonamide] |  | 257 nM |  | 3.9 nM | 0.161 mg/mL
11 | COc1ccc(Cl)cc1S(=O)(=O)Nc1nccc(C#Cc2cnc(N)nc2)c1F [Example 13, N-{4-[2-(2-aminopyrimidin-5-yl)ethynyl]-3-fluoropyridin-2-yl}-5-chloro-2-methoxybenzene-1-sulfonamide] |  | 611 nM |  | 9.3 nM | 0.109 mg/mL
12 | O=S(=O)(Nc1nccc(C#Cc2cnc3[nH]ncc3c2)c1F)c1cc(Cl)ccc1Cl [Example 14, 2,5-dichloro-N-[3-fluoro-4-(2-{1H-pyrazolo[3,4-b]pyridin-5-yl}ethynyl)pyridin-2-yl]benzene-1-sulfonamide] |  | 236 nM |  | 3.6 nM | 0.0247 mg/mL
13 | Nc1ncc(C#Cc2ccnc(NS(=O)(=O)c3cc(Cl)ccc3Cl)c2F)cn1 [Example 15, N-{4-[2-(2-aminopyrimidin-5-yl)ethynyl]-3-fluoropyridin-2-yl}-2,5-dichlorobenzene-1-sulfonamide] |  | 465 nM |  | 7.1 nM | 0.224 mg/mL
14 | Nc1ncc(C#Cc2ccnc(NS(=O)(=O)c3cc(Cl)cc(CO)c3Cl)c2F)cn1 [Example 16, N-{4-[2-(2-aminopyrimidin-5-yl)ethynyl]-3-fluoropyridin-2-yl}-2,5-dichloro-3-(hydroxymethyl)benzene-1-sulfonamide] |  | 111 nM |  | 1.7 nM | 0.218 mg/mL
15 | O=S(=O)(Nc1nccc(C#Cc2cnc3[nH]ncc3c2)c1F)c1cc(Cl)cc(CO)c1Cl [Example 17, 2,5-dichloro-N-[3-fluoro-4-(2-{1H-pyrazolo[3,4-b]pyridin-5-yl}ethynyl)pyridin-2-yl]-3-(hydroxymethyl)benzene-1-sulfonamide] |  | 59 nM |  | 0.9 nM | 0.25 mg/mL
16 | COc1ncc(Cl)cc1S(=O)(=O)Nc1nccc(C#Cc2cncc3ncn(C)c23)c1F [Example 18, 5-chloro-N-[3-fluoro-4-(2-{1-methyl-1H-imidazo[4,5-c]pyridin-7-yl}ethynyl)pyridin-2-yl]-2-methoxypyridine-3-sulfonamide] | 11.3 nM | 365 nM | 3.6 nM | 5.6 nM | 0.0243 mg/mL
17 | COc1ncc(Cl)cc1S(=O)(=O)Nc1nccc(C#Cc2cncc3ncsc23)c1F [Example 19, 5-chloro-N-[3-fluoro-4-(2-{[1,3]thiazolo[4,5-c]pyridin-7-yl}ethynyl)pyridin-2-yl]-2-methoxypyridine-3-sulfonamide] | 12 nM | 384 nM | 3.8 nM | 5.9 nM | 0.103 mg/mL
18 | COc1nc(N)ncc1C#Cc1ccnc(NS(=O)(=O)c2cc(Cl)cnc2OC)c1F [Example 35, N-{4-[2-(2-amino-4-methoxypyrimidin-5-yl)ethynyl]-3-fluoropyridin-2-yl}-5-chloro-2-methoxypyridine-3-sulfonamide] |  | 328 nM |  | 5 nM | 
